The text below walks through data of patent US11376255B2, “Thiocarbamate derivatives as A2A inhibitors, pharmaceutical composition thereof and combinations with anticancer agents” (iTeos Belgium SA, priority 2018, dated 2022).

Each structure is given as a SMILES string.

The term TGI denotes how far tumour growth fell short of that in controls.

One experiment has as its system Hepa 1-6 tumor cells. The experiment is described as follows: Syngeneic HEPA1-6 mouse liver tumor model. The note with it: 3 mg/kg p.o. BID, single agent; calculated on Day 22. Type of experiment: in vivo, C57BL/6 mice. An excerpt: This study evaluated the anti-tumor activity of Compound 7 in a mouse hepatoma model (NCR-A2A-032).
C57BL/6 female mice (8 weeks old) were inoculated subcutaneously in the right flank region with Hepa 1-6 tumor cells (on day 0). When tumor size reached about 50 mm^3 (on Day 4), mice were randomly allocated into experimental groups and treatment was initiated from day 4 to 25.

In experiment [1] the test system is A20 mouse B-cell tumor cells. As to the kind of experiment: Syngeneic A20 experimental lymphoma model in combination with anti-PD-L1. Type of experiment: in vivo, BALB/c mice. The conditions noted are these: for TGI: day 23. On the procedure: In this study the anti-tumor efficacy of Compound 7 was assessed either as single agent (monotherapy) or in combination with antagonist anti-Programmed Death-Ligand 1 (anti-PD-L1) monoclonal antibody (10F.9G2, BioXcell) in a model of B cell lymphoma model. (NCR-A2A-031).
BALB/c female mice (8 weeks old) were inoculated with A20 mouse B-cell tumor cells, subcutaneously in the right lower flank region (day 0). When tumors reached a size of about 50 mm^3 (Day 7), mice were allocated randomly into groups and treatment was initiated.

The subject of the next experiment is Human CD3+ T cells. As to the kind of experiment: Human T cell activation assay in presence of ATP (CFSE proliferation, TNFα AlphaLISA). The note with it: ATP 100 μM, 72 hours. For orientation: Alpha assays give light when donor and acceptor beads are brought close together.
For the next experiment, the system named is CT26 mouse tumor cells. As to the kind of experiment: Syngeneic CT26 experimental colon cancer model in combination with Doxorubicin and/or anti-TIGIT mAb.
A further experiment relates to MCA205 tumor cells. The experiment is described as follows: Syngeneic MCA205 experimental fibrosarcoma model in combination with Oxaliplatin. Type of experiment: in vivo, C57BL/6 mice. The conditions noted are these: Oxaliplatin 10 mg/kg i.p. single administration at D11, single agent; p=0.0202. An excerpt: MCA205 tumor cells were inoculated subcutaneously into the right flank of C57BL/6 mice. When tumors reached an average size of about 80 mm^3, mice were randomly allocated into groups.

Text for Human CD3+ T cells: PBMC and CD3^+ T cell isolation. Venous blood from healthy volunteers was obtained via ImmuneHealth (Centre Hospitalier Universitaire Tivoli, La Louviere, Belgium). Peripheral blood mononuclear cells (PBMCs) were collected by density gradient centrifugation, using SepMate-50 tubes (StemCell Technologies, Grenoble, France) and Lymphoprep (Axis-shield, Oslo, Norway) according to the manufacturer's instructions. PBMCs were stored in heat inactivated foetal bovine serum (hiFBS; Gibco, ThermoFisher Scientific, Merelbeke, Belgium) containing 10% DMSO in liquid nitrogen until required. PBMCs were thawed and washed into PBS (with 10% hiFBS) and labelled with 1 μM CFSE (Life Technologies) at room temperature for 5 minutes. Cells were washed into StemCell isolation buffer and CD3^+ T cells were isolated by immunomagnetic negative selection, using the EasySep Human T Cell Isolation Kit (StemCell Technologies) as per manufacturer's instructions.
Human T cell activation assay. […]
Cells were placed in a 37° C. humidified tissue culture incubator with 5% CO2 for 72 hours. […] Proliferation of CD4^+ T cells was assessed by determining CFSE dilution by flow cytometry using a BD LSRFortessa (BD Biosciences). Supernatants were later thawed and TNFα was quantified using the AlphaLISA Human TNFα Biotin-Free Detection Kit (AL325; Perkin-Elmer, Zaventem, Belgium), according to the manufacturer's instructions.

As to `C[S@@+]([O-])CCOc1cc(N2CCN(CCn3c(=O)sc4c3nc(N)n3nc(-c5ccco5)nc43)CC2)c(F)cc1F` (racemic) [Compound 7, (R,S)-5-amino-3-(2-(4-(2,4-difluoro-5-(2-(methylsulfinyl)ethoxy)phenyl)piperazin-1-yl)ethyl)-8-(furan-2-yl)thiazolo[5,4-e][1,2,4]triazolo[1,5-c]pyrimidin-2(3H)-one], the “tumor growth inhibition (TGI)” value with Hepa 1-6 tumor cells was 44%. Besides, the TGI was 76% in experiment [1] (Compound 7 0.3 mg/kg p.o. BID in combination with anti-PD-L1 mAb 5 mg/kg i.p. Q3D×3) and 82% in experiment [1] (Compound 7 3 mg/kg BID in combination with anti-PD-L1 mAb 5 mg/kg i.p. Q3D×3). For the same compound, in experiment [1] (combination with anti-PD-L1 mAb, p=0.017), the “interaction with anti-PD-L1 mAb on growth of established A20 tumor (statistical analysis)” value is recorded as “synergises with anti-PD-L1 mAb”.

Consider `CCN(CC)c1ncnc2c1ncn2[C@@H]1O[C@H](COP(=O)(O)OP(=O)(O)C(Br)(Br)P(=O)(O)O)[C@@H](O)[C@H]1O` [ARL67156], for which, in the experiment with Human CD3+ T cells (CD39 inhibitors ARL67156 100 μM and POM-1 10 μM without compound 8a), the “restoration of TNFα production inhibited by ATP” value is reported as “approximately 50%”. Besides, in the experiment on Human CD3+ T cells (combination of CD39 inhibitors ARL67156 100 μM and POM-1 10 μM), the “CD4+ T cell proliferation inhibited by ATP” value was “almost completely rescued”.

Take `COc1cccc2c1C(=O)c1c(O)c3c(c(O)c1C2=O)C[C@@](O)(C(=O)CO)C[C@@H]3O[C@H]1C[C@H](N)[C@H](O)[C@H](C)O1` [Doxorubicin]: the “anti-tumor efficacy compared to anti-TIGIT mAb or Doxorubicin stand-alone” value with CT26 mouse tumor cells (Doxorubicin 6 mg/kg in combination with anti-TIGIT mAb 1 mg/kg, p=0.008 and p=0.0002) is on record as “improved anti-tumor efficacy”. Moreover, the tumor growth entry with CT26 mouse tumor cells (Doxorubicin 6 mg/kg on day 10 and 14, single agent, p=0.14) is reported as “no significant effect on tumor growth”. In the experiment with CT26 mouse tumor cells (anti-TIGIT+Doxorubicin combination, out of 10 mice), the “complete responders (CR)” value is on record as “one”.

As to `O=C1[O][Pt]2([NH][C@@H]3CCCC[C@H]3[NH]2)[O]C1=O` [Oxaliplatin], the “tumor growth compared to Vehicle” value in the experiment with MCA205 tumor cells was “significant delay in tumor growth”.
